Measured values from PubChem BioAssay (NCI).
Several values for one entry are separate records, joined by “and”; a condition that tells them apart may be missing. Identical values can stand only once.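 Assay format: 96-well plates, 48-hour exposure. The concentration for 50% growth inhibition is given as GI50. TGI marks complete inhibition of growth.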

What was measured:
Assay in all cases: inhibition of tumour cell growth, NCI panel, 48 h
SR leukemia = test system: SR leukemia
UACC-257 melanoma = test system: UACC-257 melanoma
COLO 205 colon = test system: COLO 205 colon
UACC-62 melanoma = test system: UACC-62 melanoma
SF-295 CNS = test system: SF-295 CNS
SK-MEL-28 melanoma = test system: SK-MEL-28 melanoma
SN12C renal = test system: SN12C renal
MCF7 breast = test system: MCF7 breast
BT-549 breast = test system: BT-549 breast

| SMILES | TGI (SR leukemia) [µM] | TGI (UACC-257 melanoma) [µM] | TGI (COLO 205 colon) [µM] | TGI (UACC-62 melanoma) [µM] | TGI (SF-295 CNS) [µM] | TGI (SK-MEL-28 melanoma) [µM] | TGI (SN12C renal) [µM] | TGI (MCF7 breast) [µM] | TGI (BT-549 breast) [µM] | GI50 (MCF7 breast) | GI50 (UACC-257 melanoma) [nM] |
| --- | --- | --- | --- | --- | --- | --- | --- | --- | --- | --- | --- |
| N#Cc1ccccc1NC(=O)C(=O)C1NC(=S)NC1=O (configuration not stated) | > 100 | > 100 | > 100 | > 100 | > 100 | > 100 | > 100 |  |  |  |  |
| O=c1c2ccccc2nc2ccc3c(Cl)[nH][nH]c3c12 | > 100 | > 92.7 | > 100 | > 77.7 | > 100 | > 100 | > 100 |  |  |  |  |
| [N-]=[N+]=NCC(O)Cn1cnc2c(NC(=O)c3ccccc3)ncnc21 (configuration not stated) |  | > 100 | 76.9 | > 100 | > 100 | > 100 | > 100 |  |  |  |  |
| O=C(N=Nc1ccccc1Cl)NNc1ccccc1Cl | > 100 | > 100 |  | > 100 |  | > 100 | > 100 |  |  |  |  |
| CCCCN(C)/N=N/c1nc[nH]c1C(N)=O |  | > 100 | > 100 | > 100 | > 100 | > 100 | > 100 | > 100 |  |  |  |
| COc1ccc(Oc2ccccc2N)cc1 | > 100 | > 100 | 35.4 | > 100 | > 100 | 95.1 | > 100 |  |  |  |  |
| N#Cc1c(N)nc2c3c1NC(=O)C(C(N)=O)C3c1ccccc1O2 (configuration not stated) | > 100 | > 100 | > 100 | > 100 | > 100 | > 100 | > 100 | > 100 |  |  |  |
| CCC(=O)OC1CCn2c1nc1c2C(=O)C(C)=C(NC(C)=O)C1=N (configuration not stated) | > 100 | 2.5 | 3.18 | 2.71 | 4.12 | 3.5 | 3.02 |  |  |  |  |
| CC1(C)O[C@@H](C[C@]2(C#N)C[C@H](CCl)OC(C)(C)O2)C[C@@H](C#N)O1 | > 100 | > 100 | > 100 | > 100 | > 100 | > 100 | > 100 |  |  |  |  |
| CC(=O)OCC1OC(n2c(C)c(C)c(C)c(C#N)c2=S)C(OC(C)=O)C(OC(C)=O)C1OC(C)=O (configuration not stated) | > 100 | > 100 | > 100 | > 100 | 61.4 | > 100 | > 100 | > 100 |  |  |  |
| Nc1c(S(=O)(=O)O)cc(S(=O)(=O)O)c2ccc(N=Nc3ccc(/C=C/c4ccc(N=Nc5ccc6c(S(=O)(=O)O)cc(S(=O)(=O)O)c(N)c6c5O)cc4S(=O)(=O)O)c(S(=O)(=O)O)c3)c(O)c12 |  | > 100 | > 100 | > 100 | > 100 | > 100 | > 100 | > 100 |  |  |  |
| CSc1cnc2ccccc2c1Sc1c[nH]c2ccccc2c1=O | > 52 | 48 | 22.7 | 25.1 | > 46.7 | 43.5 | 76.3 |  |  |  |  |
| NC(=O)CN1C=CCC(C(N)=O)=C1 |  | > 100 | > 100 | > 100 | > 100 |  | > 100 | > 100 | > 100 |  |  |
| CCOC(=O)C1=C(O)c2ccc(C)cc2C(=O)C1=O | > 100 | > 100 | > 100 | > 100 | > 100 | > 100 | > 100 |  |  |  |  |
| CC(C)c1cc(C(C)C)c(S(=O)(=O)N=[N+]=[N-])c(C(C)C)c1 | > 100 | > 100 | > 100 | > 100 |  | > 100 | > 100 |  |  |  |  |
| CCN(CC)CC1CCCCN1CC(=O)N1CC(C)C(=O)Nc2ccccc21 (configuration not stated) | > 100 | > 100 | > 100 | > 100 | > 100 | > 100 | > 100 |  |  |  |  |
| O=C1C2C=CC(n3[nH]c(=O)n(Cc4ccccc4)c3=O)CC2C(=O)N1c1ccc(Br)cc1 (configuration not stated) | > 100 | > 100 | > 100 | > 100 | > 100 | > 100 | > 100 |  |  |  |  |
| C=C1C(C)C2C(Cc3ccccc3)NC(=O)C23OC(=O)/C=C\CC(=O)CCC(C)C/C=C/C3C1O (configuration not stated) |  | 3.89 | 5.09 | 11.2 | 13.9 | 3.92 | 5.93 | 5.1 |  | 695 nM and 1390 nM |  |
| COc1cc2c(c(OC)c1OC)-c1ccc(SC)c(=O)cc1[C@@H](NCc1ccc([N+](=O)[O-])cc1)CC2 |  | > 100 | 0.0145 | 51.2 | > 100 |  | > 100 |  |  |  | 77.1 |
| Cc1c2ccncc2c(C)c2c1[nH]c1ccc(OCCN(C)C)cc12 |  | 2.07 | 1.3 | 2.35 | 0.505 | 2.01 | 1.61 | 0.785 |  |  |  |
| N/C(=N\N=C\c1ncccc1O)NO |  | > 100 | > 39.8 | 43 | > 77.8 | > 100 | > 100 | > 100 |  |  |  |
| O=C(O)c1ccccc1C1c2ccccc2Oc2ccccc21 | > 100 | > 100 |  | > 100 | > 100 | > 100 | > 100 |  | > 100 |  |  |
